In the supplement of paper PMC10307832:

Legend:
Assay in all cases: relative viability (nuclei count vs DMSO), 5 days (fraction); higher = more cells survive
[1] = compound: CC(C)CCN1c2nc(Nc3cc(F)c(O)c(F)c3)ncc2N(C)C(=O)C1C [BI-D1870] + COc1cccc2cc(-c3nc([C@H]4CC[C@H](C(=O)O)CC4)n4ncnc(N)c34)[nH]c12 [OSI-027] (partner 0.5 µM)
Method in brief: (§1)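 Lung cancer cell lines in 1536-well plates got either a single drug or a fixed anchor-drug dose together with five library-drug doses (not always all listed) in √10 steps, by pin tool, on the day after seeding. Nuclei were counted after 5 days, and relative viability is the treated-to-vehicle ratio of nuclei counts. Values are medians of duplicate plates.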

[2] = compound: CC(C)CCN1c2nc(Nc3cc(F)c(O)c(F)c3)ncc2N(C)C(=O)C1C [BI-D1870] + C[C@@H](Oc1cc(-c2cnn(C3CCNCC3)c2)cnc1N)c1c(Cl)ccc(F)c1Cl [Crizotinib] (partner 1 µM)
Method in brief: as §1

[3] = compound: CC(C)CCN1c2nc(Nc3cc(F)c(O)c(F)c3)ncc2N(C)C(=O)C1C [BI-D1870] + Nc1ncn([C@H]2C[C@H](O)[C@@H](CO)O2)c(=O)n1 [Decitabine] (partner 2 µM)
Method in brief: as §1

[4] = compound: O=c1ncccn1[C@@H]1O[C@H](CO)[C@@H](O)[C@H]1O [Zebularine] + COc1cccc2cc(-c3nc([C@H]4CC[C@H](C(=O)O)CC4)n4ncnc(N)c34)[nH]c12 [OSI-027] (partner 0.5 µM)
Method in brief: as §1

Row | Cell Line | relative viability ([1]; first compound 0.04 µM) | relative viability ([1]; first compound 0.1265 µM) | relative viability ([1]; first compound 0.4 µM) | relative viability ([1]; first compound 1.265 µM) | relative viability ([1]; first compound 4 µM) | relative viability ([2]; first compound 0.04 µM) | relative viability ([2]; first compound 0.1265 µM) | relative viability ([2]; first compound 0.4 µM) | relative viability ([2]; first compound 1.265 µM) | relative viability ([2]; first compound 4 µM) | relative viability ([3]; first compound 0.04 µM) | relative viability ([3]; first compound 0.1265 µM) | relative viability ([3]; first compound 0.4 µM) | relative viability ([3]; first compound 1.265 µM) | relative viability ([3]; first compound 4 µM) | relative viability ([4]; first compound 1 µM) | relative viability ([4]; first compound 3.162 µM) | relative viability ([4]; first compound 10 µM) | relative viability ([4]; first compound 31.62 µM) | relative viability ([4]; first compound 100 µM)
1 | LU99A | 0.295 | 0.265 | 0.288 | 0.308 | 0.287 | 0.692 | 0.539 | 0.552 | 0.547 | 0.508 | 0.883 | 0.814 | 0.898 | 0.837 | 0.725 | 0.314 | 0.278 | 0.284 | 0.294 | 0.216
2 | HCC-827 | 0.74 | 0.738 | 0.71 | 0.76 | 0.711 | 0.97 | 0.912 | 0.95 | 0.947 | 0.821 | 0.333 | 0.322 | 0.306 | 0.365 | 0.402 | 1.06 | 0.779 | 0.675 | 0.609 | 0.366
3 | LK-2 | 0.21 | 0.259 | 0.198 | 0.197 | 0.148 | 0.187 | 0.233 | 0.232 | 0.274 | 0.264 | 0.373 | 0.317 | 0.379 | 0.353 | 0.342 | 0.187 | 0.181 | 0.195 | 0.202 | 0.162
4 | HCC-366 | 1.1 | 0.603 | 0.75 | 0.818 | 0.49 | 0.694 | 0.485 | 0.471 | 0.933 | 0.378 | 0.337 | 0.306 | 0.322 | 0.469 | 0.414 | 1.02 | 0.831 | 0.558 | 0.807 | 0.253
5 | BEN | 0.296 | 0.289 | 0.283 | 0.311 | 0.283 | 1.12 | 0.722 | 1.01 | 0.99 | 0.822 | 0.748 | 0.617 | 0.733 | 0.738 | 0.844 | 0.544 | 0.29 | 0.279 | 0.24 | 0.272
6 | NCI-H23 | 0.782 | 0.525 | 0.463 | 0.547 | 0.344 | 0.527 | 0.424 | 0.509 | 0.667 | 0.559 | 0.336 | 0.329 | 0.306 | 0.333 | 0.242 | 0.674 | 0.55 | 0.368 | 0.628 | 0.518
7 | 201T | 0.742 | 0.826 | 0.702 | 0.801 | 0.683 | 1.02 | 1.02 | 1.04 | 1.07 | 1.03 | 0.886 | 0.849 | 0.847 | 0.848 | 0.879 | 0.602 | 0.691 | 0.517 | 0.592 | 0.378
8 | NCI-H2170 | 0.732 | 0.634 | 0.65 | 0.428 | 0.639 | 1.31 | 1.06 | 1.24 | 1.24 | 1.06 | 0.515 | 0.384 | 0.457 | 0.445 | 0.402 | 0.86 | 0.63 | 0.569 | 0.678 | 0.432
9 | NCI-H460 | 0.825 | 0.504 | 0.43 | 0.442 | 0.185 | 1.2 | 0.76 | 0.84 | 0.926 | 0.14 | 0.548 | 0.459 | 0.473 | 0.593 | 0.443 | 0.971 | 0.707 | 0.336 | 0.18 | 0.0887
10 | NCI-H661 | 0.765 | 0.622 | 0.652 | 0.706 | 0.467 | 1.24 | 0.963 | 0.973 | 1.05 | 0.902 | 0.524 | 0.555 | 0.542 | 0.651 | 0.546 | 0.794 | 0.671 | 0.591 | 0.764 | 0.627
11 | HCC-15 | 0.732 | 0.611 | 0.638 | 0.765 | 0.396 | 0.919 | 0.733 | 0.74 | 0.81 | 0.594 | 0.674 | 0.623 | 0.627 | 0.72 | 0.465 | 0.85 | 0.587 | 0.457 | 0.537 | 0.27
12 | ABC-1 | 0.669 | 0.406 | 0.416 | 0.501 | 0.319 | 1.19 | 0.49 | 1.12 | 0.988 | 0.591 | 0.885 | 1.05 | 1.15 | 0.942 | 1.03 | 0.522 | 0.413 | 0.401 | 0.367 | 0.443
13 | LCLC-103H | 0.387 | 0.417 | 0.447 | 0.418 | 0.366 | 1.18 | 0.889 | 0.868 | 1.1 | 1.03 | 0.706 | 0.588 | 0.723 | 0.804 | 0.678 | 0.474 | 0.434 | 0.321 | 0.414 | 0.462
14 | NCI-H441 | 0.577 | 0.557 | 0.601 | 0.637 | 0.496 | 1.01 | 0.696 | 0.925 | 0.738 | 0.448 | 0.249 | 0.273 | 0.275 | 0.255 | 0.312 | 0.817 | 0.595 | 0.401 | 0.25 | 0.234
15 | EPLC-272H | 0.263 | 0.218 | 0.272 | 0.278 | 0.204 | 0.926 | 0.86 | 0.904 | 0.972 | 0.931 | 0.372 | 0.346 | 0.417 | 0.359 | 0.372 | 0.279 | 0.213 | 0.312 | 0.324 | 0.27
